Data as given in ChEMBL document CHEMBL5143566, “Discovery of Pyrazolo[1,5-a]pyrazin-4-ones as Potent and Brain Penetrant GluN2A-Selective Positive Allosteric Modulators Reducing AMPA Receptor Binding Activity” (Bioorg Med Chem, 2022).
Activity calls are given as the source filed them. The rule behind the calls is not given here.

Key:
[1] = target: T1, Glutamate NMDA receptor; GRIN1/GRIN2A (Homo sapiens, UniProt Q05586+Q12879); assay: Positive allosteric modulator activity at GluN1a/GluN2A (unknown origin) expressed in CHO cells assessed as maximum potentiation at 30 uM in presence of glutamate by Ca2+ influx assay relative to control; assay type: cell-based
Glutamate receptor 2 [2] = target: T2, Glutamate receptor 2 (Homo sapiens, UniProt P42262); assay: Displacement of [3H]-HBT1 from His-tagged GluA2-AMPA (unknown origin) receptor expressed in CHO cells in presence of glutamate by scintillation proximity assay; assay type: cell-based
[3] = 1-Octanol/aqueous buffer distribution coefficient, log D of the compound at pH 7.4 by HPLC analysis; assay type: physicochemical
[4] = target: T1, Glutamate NMDA receptor; GRIN1/GRIN2A; assay: Positive allosteric modulator activity at GluN1a/GluN2A (unknown origin) expressed in CHO cells in presence of glutamate by Ca2+ influx assay; assay type: cell-based
[5] = target: Glutamate receptor ionotropic, NMDA 2A (Homo sapiens) (UniProt Q12879); assay: Positive allosteric modulator activity at GluN2A receptor (unknown origin) assessed as maximum potentiation by FLIPR assay relative to control; details: filed as positive allosteric modulator
[6] = target: Glutamate receptor ionotropic, NMDA 2A (Homo sapiens, UniProt Q05586+Q12879); assay: Positive allosteric modulator activity at GluN2A receptor (unknown origin) by FLIPR assay
Glutamate receptor 2 [7] = target: T2, Glutamate receptor 2; assay: Displacement of [3H]-HBT1 from GluA2-AMPA receptor (unknown origin) in presence of glutamate by scintillation proximity assay
Glutamate receptor 2 [8] = target: T2, Glutamate receptor 2; assay: Positive allosteric modulator activity at GluA2-AMPA receptor (unknown origin) by FLIPR assay
Glutamate receptor 2 [9] = target: T2, Glutamate receptor 2; assay: Positive allosteric modulator activity at GluA2-AMPA receptor (unknown origin) assessed as maximum potentiation by FLIPR assay relative to control
[10] = Clearance in rat liver microsomes at 1 uM in presence of NADPH measured for 15 to 30 min by LC-MS/MS analysis; assay type: ADME, Microsome; details: time 15-30 min, read-out: CLH
[11] = target: Ionotropic glutamate receptor NMDA 1/2D (Homo sapiens, UniProt O15399+Q05586); assay: Positive allosteric modulator activity at GluN1a/GluN2D (unknown origin) expressed in CHO cells in presence of glutamate by Ca2+ influx assay; assay type: cell-based
[12] = target: T3, Ionotropic glutamate receptor NMDA 1/2C (Homo sapiens, UniProt Q05586+Q14957); assay: Positive allosteric modulator activity at GluN1a/GluN2C (unknown origin) expressed in CHO cells in presence of glutamate by Ca2+ influx assay; assay type: cell-based
[13] = Drug concentration in rat plasma at 3 mg/kg, po after 1 hrs by LC-MS/MS analysis; assay type: ADME, organism-based
[14] = Ratio of drug concentration in brain to plasma at 3 mg/kg, po after 0.5 hr by LC-MS/MS analysis; assay type: ADME, organism-based; details: rat, brain and plasma, read-out: BPR
[15] = Volume of distribution at steady state in rat at 1 mg/kg, iv by LC-MS/MS analysis; assay type: ADME, organism-based; details: in vivo, read-out: Vdss
[16] = Cmax in rat at 1 mg/kg, iv by LC-MS/MS analysis; assay type: ADME, organism-based; parameters: dose 1 mg/kg, route iv; details: in vivo
Homo sapiens [17] = species: Homo sapiens; assay: Selectivity index, ratio of EC50 for GluN1a/GluN2C (unknown origin) expressed in CHO cells to EC50 for GluN1a/GluN2A (unknown origin) expressed in CHO cells; assay type: cell-based
[18] = Ratio of drug concentration in brain to plasma at 3 mg/kg, po after 2 hr by LC-MS/MS analysis; assay type: ADME, organism-based; details: rat, brain and plasma, read-out: BPR
[19] = Drug concentration in rat plasma at 3 mg/kg, po after 0.5 hrs by LC-MS/MS analysis; assay type: ADME, organism-based
[20] = Total clearance in rat at 1 mg/kg, iv by LC-MS/MS analysis; assay type: ADME, organism-based; details: in vivo
[21] = Drug concentration in rat brain at 3 mg/kg, po after 1 hrs by LC-MS/MS analysis; assay type: ADME, organism-based; details: read-out: Ct
CHO = assay: Positive allosteric modulator activity at GluN1a/GluN2B (unknown origin) expressed in CHO cells at 30 uM in presence of glutamate by Ca2+ influx assay relative to control; assay type: cell-based; details: Homo sapiens
[22] = Drug concentration in rat plasma at 3 mg/kg, po after 2 hrs by LC-MS/MS analysis; assay type: ADME, organism-based
[23] = Clearance in human liver microsomes at 1 uM in presence of NADPH measured for 15 to 30 min by LC-MS/MS analysis; assay type: ADME, Microsome; details: time 15-30 min, read-out: CLH
Homo sapiens [24] = species: Homo sapiens; assay: Selectivity index, ratio of EC50 for GluN1a/GluN2D (unknown origin) expressed in CHO cells to EC50 for GluN1a/GluN2A (unknown origin) expressed in CHO cells; assay type: cell-based
[25] = Ratio of drug concentration in brain to plasma at 3 mg/kg, po after 1 hr by LC-MS/MS analysis; assay type: ADME, organism-based; details: rat, brain and plasma, read-out: BPR
[26] = AUC in rat at 10 mg/kg, po by LC-MS/MS analysis; assay type: ADME, organism-based; parameters: dose 10 mg/kg, route po; details: in vivo
[27] = Oral bioavailability in rat at 10 mg/kg by LC-MS/MS analysis; assay type: ADME, organism-based; details: in vivo
[28] = Drug concentration in rat brain at 3 mg/kg, po after 0.5 hrs by LC-MS/MS analysis; assay type: ADME, organism-based; details: read-out: Ct
[29] = target: Ionotropic glutamate receptor NMDA 1/2D (Homo sapiens) (UniProt Q05586+O15399); assay: Positive allosteric modulator activity at GluN1a/GluN2D (unknown origin) expressed in CHO cells at 30 uM in presence of glutamate by Ca2+ influx assay relative to control; assay type: cell-based; details: filed as positive allosteric modulator
[30] = Drug concentration in rat brain at 3 mg/kg, po after 2 hrs by LC-MS/MS analysis; assay type: ADME, organism-based; details: read-out: Ct
Homo sapiens [31] = species: Homo sapiens; assay: Selectivity index, ratio of EC50 for GluN1a/GluN2B (unknown origin) expressed in CHO cells to EC50 for GluN1a/GluN2A (unknown origin) expressed in CHO cells; assay type: cell-based
Rattus norvegicus = assay: Induction of LTP enhancement in Sprague-Dawley rat assessed as increase in LTP enhancement in hippocampal slices at 10 mg/kg, po; assay type: functional, organism-based
[32] = target: T3, Ionotropic glutamate receptor NMDA 1/2C; assay: Positive allosteric modulator activity at GluN1a/GluN2C (unknown origin) expressed in CHO cells at 30 uM in presence of glutamate by Ca2+ influx assay relative to control; assay type: cell-based; details: filed as positive allosteric modulator
[33] = MRT in rat at 10 mg/kg, po by LC-MS/MS analysis; assay type: ADME, organism-based; details: in vivo
[34] = filed as positive allosteric modulator

T2 sequence (P42262 whole entry): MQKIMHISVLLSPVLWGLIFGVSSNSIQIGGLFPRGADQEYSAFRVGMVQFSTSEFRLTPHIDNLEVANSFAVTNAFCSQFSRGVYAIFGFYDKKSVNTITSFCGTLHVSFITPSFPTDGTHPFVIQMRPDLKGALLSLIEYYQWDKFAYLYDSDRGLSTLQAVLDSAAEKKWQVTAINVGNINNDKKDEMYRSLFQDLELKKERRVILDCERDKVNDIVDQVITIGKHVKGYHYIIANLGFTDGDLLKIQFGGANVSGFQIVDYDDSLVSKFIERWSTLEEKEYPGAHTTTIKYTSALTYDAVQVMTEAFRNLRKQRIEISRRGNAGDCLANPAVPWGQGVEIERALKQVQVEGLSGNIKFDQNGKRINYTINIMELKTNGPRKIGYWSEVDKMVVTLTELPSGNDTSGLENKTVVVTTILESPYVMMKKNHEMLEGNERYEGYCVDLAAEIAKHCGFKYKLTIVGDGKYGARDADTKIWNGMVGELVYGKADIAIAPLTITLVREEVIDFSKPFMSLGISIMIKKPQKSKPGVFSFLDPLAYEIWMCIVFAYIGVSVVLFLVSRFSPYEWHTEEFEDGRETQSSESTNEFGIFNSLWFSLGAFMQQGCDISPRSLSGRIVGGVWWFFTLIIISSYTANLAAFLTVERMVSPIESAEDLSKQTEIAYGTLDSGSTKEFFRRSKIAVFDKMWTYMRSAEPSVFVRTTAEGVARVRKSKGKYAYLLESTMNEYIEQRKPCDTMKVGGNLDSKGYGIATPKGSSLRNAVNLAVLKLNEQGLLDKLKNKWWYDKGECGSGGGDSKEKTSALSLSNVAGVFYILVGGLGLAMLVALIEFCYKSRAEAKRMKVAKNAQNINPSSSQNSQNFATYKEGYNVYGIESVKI

Compound: CCN(Cc1cc2c(=O)n(CCC#N)ccc2s1)c1ccc(F)cc1
- %max [1, 34]: 320%
- IC50 (Glutamate receptor 2 [2]): 0.61 µM
- logD [3]: 2.92
- EC50 [4]: > 30 µM

Compound: CCc1cn(CCC#N)c(=O)c2sc(CN(CC)c3ccc(F)cc3)cc12
- %max [1, 34]: 410%
- IC50 (Glutamate receptor 2 [2]): > 30 µM
- logD [3]: 3.34
- EC50 [4]: 4.4 µM

Compound: CCN(Cc1ccc(C(=O)N2CCC[C@@H]2C#N)s1)c1ccc(F)cc1
- %max [5]: 270%
- EC50 [6]: > 30 µM
- logD [3]: 2.06
- IC50 (Glutamate receptor 2 [7]): 1.2 µM
- EC50 (Glutamate receptor 2 [8]): > 30 µM
- %max (Glutamate receptor 2 [9]; BLD = below limit of detection): Bld

Compound: CCN(Cc1cc2c(=O)n(CCC#N)ccn2n1)c1ccc(F)cc1
- %max [1, 34]: 420%
- IC50 (Glutamate receptor 2 [2]): 22 µM
- logD [3]: 2.45
- EC50 [4]: 5.2 µM

Compound: Cc1cn([C@@H](C)CC#N)c(=O)c2cc(Cn3nc(C(F)F)cc3Cl)nn12
- %max [1]: < 150%
- IC50 (Glutamate receptor 2 [2]): > 30 µM
- logD [3]: 2.06

Compound: N#C[C@H]1C[C@H]1c1c(C(F)(F)F)sc2nc(Cn3nc(C(F)(F)F)cc3Cl)cc(=O)n12
- %max [5]: 416%
- EC50 [6]: 0.011 µM
- IC50 (Glutamate receptor 2 [7]): 0.88 µM
- EC50 (Glutamate receptor 2 [8]): 24 µM
- %max (Glutamate receptor 2 [9]; BLD = below limit of detection): Bld

Compound: Cc1cn(CCC#N)c(=O)c2cc(Cn3nc(Br)cc3Cl)nn12
- %max [1, 34]: 160%
- IC50 (Glutamate receptor 2 [2]): > 30 µM
- logD [3]: 2.16
- microsomal CLint at 1 µM [10]: 1 µL/min/mg
- EC50 [4]: 1.5 µM

Compound: Cc1cn(CCC#N)c(=O)c2cc(Cn3nc(C(F)F)cc3Cl)nn12
- %max [1, 34]: 220%
- IC50 (Glutamate receptor 2 [2]): > 30 µM
- logD [3]: 1.88
- EC50 [4]: 2 µM

Compound: N#C[C@H]1C[C@H]1c1c(Cl)ccc2nc(Cn3nc(C(F)(F)F)cc3Cl)cc(=O)n12
- %max [5]: 471%
- EC50 [6]: 0.039 µM
- IC50 (Glutamate receptor 2 [7]): 0.38 µM
- EC50 (Glutamate receptor 2 [8]): > 30 µM
- %max (Glutamate receptor 2 [9]): 61%

Compound: Cc1cn([C@H](C)CC#N)c(=O)c2cc(Cn3nc(C(F)F)cc3Cl)nn12
- EC50 [11]: > 30 µM
- EC50 [12]: > 30 µM
- concentration at 1 h [13]: 0.397 µg/mL
- Kp at 0.5 h [14]: 0.59
- Vd [15]: 0.657 L/kg
- %max [1, 34]: 350%
- Cmax [16]: 1.91 µg/mL
- Ratio EC50 (Homo sapiens [17]): 19
- IC50 (Glutamate receptor 2 [2]): > 30 µM
- Kp at 2 h [18]: 0.51
- concentration at 0.5 h [19]: 0.523 µg/mL
- clearance [20]: 0.235 L/h/kg
- concentration at 1 h [21]: 187 ng/g
- %max (CHO): < 150%
- logD [3]: 2.06
- concentration at 2 h [22]: 0.287 µg/mL
- EC50 [4]: 0.51 µM
- microsomal CLint at 1 µM [23]: 33 µL/min/mg
- Ratio EC50 (Homo sapiens [24]): 19
- Kp at 1 h [25]: 0.47
- AUC [26]: 9.14 µg·h/mL
- bioavailability [27]: 21.4%
- concentration at 0.5 h [28]: 307 ng/g
- %max [29]: 260%
- concentration at 2 h [30]: 146 ng/g
- Ratio EC50 (Homo sapiens [31]): > 59
- Activity (Rattus norvegicus): Active
- %max [32]: 200%
- MRT [33]: 3.5 h

Compound: Cc1cn(CCC#N)c(=O)c2cc(Cn3nc(C(F)(F)F)cc3Cl)nn12
- %max [1, 34]: 420%
- IC50 (Glutamate receptor 2 [2]): 19 µM
- logD [3]: 2.32
- microsomal CLint at 1 µM [10]: 7 µL/min/mg

Compound: CCN(Cc1cc2c(C)cn(CCC#N)c(=O)c2s1)c1ccc(F)cc1
- %max [1, 34]: 480%
- IC50 (Glutamate receptor 2 [2]): > 30 µM
- logD [3]: 3.01
- EC50 [4]: 0.18 µM

Compound: CCN(Cc1cc2ccn(CC#N)c(=O)c2s1)c1ccc(F)cc1
- %max [1, 34]: 230%
- IC50 (Glutamate receptor 2 [2]): > 30 µM
- logD [3]: 2.63
- EC50 [4]: > 30 µM

Compound: Cc1cn(CCC#N)c(=O)c2cc(Cn3nc(Cl)cc3Cl)nn12
- %max [1]: < 150%
- IC50 (Glutamate receptor 2 [2]): > 30 µM
- logD [3]: 2.07
- microsomal CLint at 1 µM [10]: 13 µL/min/mg
- EC50 [4]: > 30 µM

Compound: CCN(Cc1cc2cc(C)n(CCC#N)c(=O)c2s1)c1ccc(F)cc1
- %max [1, 34]: 440%
- IC50 (Glutamate receptor 2 [2]): 0.61 µM
- logD [3]: 2.95
- EC50 [4]: 0.6 µM

Compound: CCN(Cc1cc2ccn(CCC#N)c(=O)c2s1)c1ccc(F)cc1
- %max [1, 34]: 450%
- IC50 (Glutamate receptor 2 [2]): > 30 µM
- logD [3]: 2.68
- EC50 [4]: 2.3 µM

Compound: Cc1cc(Cl)n(Cc2cc3c(=O)n(CCC#N)cc(C)n3n2)n1
- %max [1]: < 150%
- IC50 (Glutamate receptor 2 [2]): > 30 µM
- logD [3]: 1.84
- microsomal CLint at 1 µM [10]: 10 µL/min/mg
- microsomal CLint at 1 µM [23]: 8 µL/min/mg

Compound: CCN(Cc1cc2c(=O)n(CCC#N)cc(C)n2n1)c1ccc(F)cc1
- %max [1, 34]: 420%
- IC50 (Glutamate receptor 2 [2]): 22 µM
- logD [3]: 2.83
- microsomal CLint at 1 µM [10]: 91 µL/min/mg
- EC50 [4]: 0.16 µM
- microsomal CLint at 1 µM [23]: 37 µL/min/mg
